“Also recorded” adds a separate entry of the source.
How the values were obtained:
Format in all cases: in vivo, rat
Long Evans Hooded rats [1] = experiment: Elevated Plus Maze (EPM) test after developmental Pb^2+ exposure, acute i.p. drug; conditions: for anxiolytic OTC ratio, sensitivity to drug / EPM track plot and group mean activity (10-min): 43 mg/kg i.p.
[2] = test system: prelimbic (PrL), infralimbic (IL), orbital ventral frontal (OV), orbital ventro-lateral (OVL), and hippocampal (HP) brain regions; experiment: LC/MS GABA:Neurotransmitter and Taurine:Neurotransmitter ratios in brain sub-regions after the ASST; conditions: male rats, OVL (all four brain regions), taurine co-treatment
Experimental: Immediately following the ASST, rats were deeply anesthetized using Isoflurane, then sacrificed, and their brains were extracted in cold physiological buffered saline (PBS) pH 7.4 in under 2-min. The rat whole brains were then transferred into a coronal sectioning steel brain matrix for 175-300 g rodents (Stoelting, Inc. Wood Dale, Ill.). […] The collected brain regions were stored at −80° C. until ready for subsequent neurochemical assessments.
The brain sub-regions were then manually homogenized with sterile glass homogenizers (i.e., total volume 3 mL) using a 10 mg/100 μL (1:10) dilution of 100% acetonitrile ([…]) (Sigma-Aldrich, St Louis, Mo.) as a miscible (i.e., fully dissolvable solution) with a dielectric constant to study the separation of chemicals by mass charge and polarity. Post homogenization, samples were sonicated for 30 sec with a pulse on:off time of 10 sec at an amplitude of 20%, then centrifuged at […] for 5-min at 4° C., and the supernatant collected and stored at −20° C. until ready for LC/MS. […] The mass/charge (m/z) values of neurotransmitters were monitored and peak heights were obtained to compare the amount of neurotransmitters within- and between-samples. The elution was performed with a flow rate of 0.2 mL/min and the neurotransmitters that were eluted from the column were detected in the positive ion mode. […]

Long Evans Hooded rats [3] = experiment: Attention Set-Shift Test (ASST) after developmental Pb^2+ exposure with taurine co-treatment; conditions: for Pb^2+-induced frontoexecutive dysfunctions (ASST task performance), overall: both sexes, 150 ppm Pb^2+ + 0.05% Taurine co-treatment; for errors-to-criterion (ETC), odor (OD) and digging medium (MD) simple discrimination training / trials-to-criterion (TTC), odor (OD) and digging medium (MD) simple discrimination training: vs Control and Perinatal; for rate-of-learning cumulative record across ASST stages: 150 ppm Pb^2+ + Taurine 0.05%
[4] = female rats, 150 ppm Pb^2+ + 0.05% Taurine
[5] = female rats, 150 ppm Pb^2+ + 0.05% Taurine in drinking water to PND 22
[6] = female rats, 150 ppm Pb^2+ + 0.05% Taurine, most recovery at ED and ED-Rev
[7] = male rats, 150 ppm Pb^2+ + 0.05% Taurine
[8] = male rats, 150 ppm Pb^2+ + 0.05% Taurine in drinking water to PND 22
[9] = male rats, 150 ppm Pb^2+ + 0.05% Taurine in drinking water to PND 22, listed as taurine
[10] = male rats, 150 ppm Pb^2+ + 0.05% Taurine, listed as taurine

SMILES: NCS(=O)(=O)O [TD-102]
- anxiolytic OTC ratio, sensitivity to drug (Long Evans Hooded rats [1]; Peri-22 1,000 ppm females): sensitive
- anxiolytic OTC ratio, sensitivity to drug (Long Evans Hooded rats [1]; Peri-22 1,000 ppm male rats): only sensitive
- anxiolytic OTC ratio, sensitivity to drug (Long Evans Hooded rats [1]; control male rats): most sensitive

SMILES: NCCC(=O)O [TD-101, 3-aminopropanoic acid]
- anxiolytic OTC ratio, sensitivity to drug (Long Evans Hooded rats [1]; control female rats): most sensitive
- anxiolytic OTC ratio, sensitivity to drug (Long Evans Hooded rats [1]; control male rats): most sensitive

SMILES: NCCS(=O)(=O)O [Taurine, 2-aminoethanesulfonic acid]
- Taurine:Dopamine levels [2]: elevated
- Pb^2+-induced anxiogenic response in the EPM (Long Evans Hooded rats [1]; 43 mg/Kg i.p. 15-min prior to testing, PND 36-45, both genders): ameliorated in a gender-specific manner
- EPM track plot and group mean activity (10-min) (Long Evans Hooded rats [1]; Control (0 ppm) female rats): increased anxiolytic response
- EPM track plot and group mean activity (10-min) (Long Evans Hooded rats [1]; Control (0 ppm) male rats): increased anxiolytic response
- Pb^2+-induced frontoexecutive dysfunctions (ASST task performance), overall (Long Evans Hooded rats [3]): recovered these frontoexecutive dysfunctions to levels equivalent to Control rats
- Pb^2+-induced frontoexecutive dysfunctions (ASST task performance), overall (Long Evans Hooded rats [3]; listed as taurine): effective in mitigating or at least reducing most; also recorded: sex-dependent recovery
- ETC, reacquisition learning (Long Evans Hooded rats [3]; [4]): no differences
- TTC, reacquisition learning (Long Evans Hooded rats [3]; [4]): no differences
- errors-to-criterion (ETC), OD and MD simple discrimination training (Long Evans Hooded rats [3]; [5]): no differences
- trials-to-criterion (TTC), OD and MD simple discrimination training (Long Evans Hooded rats [3]; [5]): no differences
- ASST performance, ETC (Long Evans Hooded rats [3]; [6]): recovered these deficits to performance levels comparative to Control males; also recorded: recovered ASST performance to rates comparable to Control female rats
- ASST performance, TTC (Long Evans Hooded rats [3]; [6]): recovered these deficits to performance levels comparative to Control males; also recorded: recovered ASST performance to rates comparable to Control female rats
- ETC, reacquisition learning (CD-Reacquisition and ID-Reacquisition) (Long Evans Hooded rats [3]; [7]): fewer ETC errors
- TTC, reacquisition learning (CD-Reacquisition and ID-Reacquisition) (Long Evans Hooded rats [3]; [7]): recovery from the TTC reacquisition learning impairment
- errors-to-criterion (ETC), odor (OD) and digging medium (MD) simple discrimination training (Long Evans Hooded rats [3]; [8]): significant difficulty in learning
- trials-to-criterion (TTC), odor (OD) and digging medium (MD) simple discrimination training (Long Evans Hooded rats [3]; [8]): significant difficulty in learning
- errors-to-criterion (ETC), odor (OD) and digging medium (MD) simple discrimination training (Long Evans Hooded rats [3]; [9]): caused learning delays
- trials-to-criterion (TTC), odor (OD) and digging medium (MD) simple discrimination training (Long Evans Hooded rats [3]; [9]): caused learning delays
- ETC, reacquisition learning (CD-Reacquisition and ID-Reacquisition) (Long Evans Hooded rats [3]; [10]): recovered reacquisition learning performance deficits to rates comparable to Control male rats
- TTC, reacquisition learning (CD-Reacquisition and ID-Reacquisition) (Long Evans Hooded rats [3]; [10]): recovered reacquisition learning performance deficits to rates comparable to Control male rats
- ASST performance, ETC (Long Evans Hooded rats [3]; male rats, 150 ppm Pb^2+ + 0.05% Taurine, most recovery at CD-Rev and ID): recovered these deficits to performance levels comparative to Control males; also recorded: recovered ASST performance to rates comparable to Control male rats
- ASST performance, TTC (Long Evans Hooded rats [3]; male rats, 150 ppm Pb^2+ + 0.05% Taurine, most recovery at CD-Rev, ID, ED): recovered these deficits to performance levels comparative to Control males; also recorded: recovered ASST performance to rates comparable to Control male rats
- rate-of-learning cumulative record across ASST stages (Long Evans Hooded rats [3]; single representative female rat): quicker rate-of-learning with less sequential errors
- rate-of-learning cumulative record across ASST stages (Long Evans Hooded rats [3]; single representative female rat, listed as taurine): significant improvements
- rate-of-learning cumulative record across ASST stages (Long Evans Hooded rats [3]; single representative male rat): quicker rate-of-learning with less sequential errors
- rate-of-learning cumulative record across ASST stages (Long Evans Hooded rats [3]; single representative male rat, listed as taurine): significant improvements

SMILES: Nc1ccccc1S(=O)(=O)O [TD-103, 2-aminobenzenesulfonic acid]
- anxiolytic OTC ratio, sensitivity to drug (Long Evans Hooded rats [1]; control female rats): most sensitive

Source: US20210069134A1 (priority 2019, published 2021)
